Values quoted from earlier work in patent EP3807270B1, “NOVEL HETEROARYL HETEROCYCLYL COMPOUNDS FOR THE TREATMENT OF AUTOIMMUNE DISEASE” (F. Hoffmann-La Roche AG, priority 2018, dated 2019).

Target: T1, hTLR7 (Homo sapiens, UniProt Q9NYK1)
T1 sequence (Q9NYK1 27-1049): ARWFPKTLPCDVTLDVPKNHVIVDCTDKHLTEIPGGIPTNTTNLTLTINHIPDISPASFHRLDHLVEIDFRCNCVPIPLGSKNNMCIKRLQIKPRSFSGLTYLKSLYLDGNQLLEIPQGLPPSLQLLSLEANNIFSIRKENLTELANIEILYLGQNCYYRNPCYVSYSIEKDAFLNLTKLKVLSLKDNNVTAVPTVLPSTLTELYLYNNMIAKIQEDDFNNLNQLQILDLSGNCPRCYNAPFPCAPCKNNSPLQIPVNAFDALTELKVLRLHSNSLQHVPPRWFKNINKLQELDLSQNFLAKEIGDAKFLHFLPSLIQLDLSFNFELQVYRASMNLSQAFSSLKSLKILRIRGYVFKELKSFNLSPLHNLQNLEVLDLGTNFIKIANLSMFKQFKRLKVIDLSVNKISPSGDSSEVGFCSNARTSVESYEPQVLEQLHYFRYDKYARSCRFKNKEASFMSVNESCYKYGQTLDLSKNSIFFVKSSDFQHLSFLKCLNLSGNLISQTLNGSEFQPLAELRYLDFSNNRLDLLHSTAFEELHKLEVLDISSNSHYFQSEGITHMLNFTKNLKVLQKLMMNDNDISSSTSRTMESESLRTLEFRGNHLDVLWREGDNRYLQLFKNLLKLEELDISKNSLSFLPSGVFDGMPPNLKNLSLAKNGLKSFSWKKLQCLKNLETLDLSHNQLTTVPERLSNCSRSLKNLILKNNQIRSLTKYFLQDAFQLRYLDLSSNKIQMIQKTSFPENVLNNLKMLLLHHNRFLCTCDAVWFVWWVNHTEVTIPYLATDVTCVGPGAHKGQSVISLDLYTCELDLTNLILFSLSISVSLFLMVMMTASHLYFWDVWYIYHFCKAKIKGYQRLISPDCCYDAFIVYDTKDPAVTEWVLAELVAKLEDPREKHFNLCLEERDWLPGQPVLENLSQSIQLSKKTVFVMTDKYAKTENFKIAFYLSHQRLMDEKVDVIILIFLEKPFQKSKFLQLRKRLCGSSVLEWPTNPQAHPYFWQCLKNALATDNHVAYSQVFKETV
Set-up: host or cells: HEK
Conditions: data disclosed in US20150105370; read-out: HEK/hTLR7 IC50; cited from earlier work

For `C[C@@H]1CN(c2ccc(C#N)c3ncccc23)C[C@H](CN2CCN(c3ccncc3)CC2)O1` [ER-888286, reference compound], the IC50 is listed as 1370 nM.
